Laboratory results reported in patent publication US10768157B2, “Materials and methods for the detection of trace amounts of substances in biological and environmental samples” (THE FLORIDA INTERNATIONAL UNIVERSITY BOARD OF TRUSTEES, priority 2015, dated 2020).
Read-outs that look alike come from different tables or passages of the source.

What was measured:
[1] = Selectivity study of CAP-imprinted sol-gel MIP vs sol-gel NIP in MIPSPE column (imprinting factor, selectivity coefficient), HPLC-UV; format: binding; settings: for Selectivity Coefficient (SC): SC=IF CAP/IF other analyte, untreated raw milk; for Imprinting Factor (IF): extraction from untreated raw milk, sol-gel MIP vs NIP
Source text: To establish the selectivity of a sol-gel MIP for a particular analyte, a non-imprinted polymer (sol-gel NIP) is synthesized in the same way as sol-gel MIP but in the absence of the template.
The IF reflects the tendency of the MIP to selectively recognize and bind the template. Competitive adsorption of MIP and NIP for CAP was investigated in a MIPSPE column system. The IF and the selectivity coefficient (SC) are indicators of the adsorption affinity of recognition sites to the imprinted CAP.
The selectivity of sol-gel MIP particles for CAP was studied. For this purpose, 30 mg of sol-gel MIP or sol-gel NIP particles were packed in SPE cartridges. Aqueous sample solutions containing 10 ng/mL CAP was passed through the SPE cartridges holding imprinted or non-imprinted particles at a flow rate of 1 mL/min by the aid of a vacuum system. Elution of the extracted chloramphenicol was performed using methanol and the concentration of chloramphenicol was determined by the HPLC-UV method.
Imprinting factor (IF) of sol-gel MIP particles was determined by the following equation: IF=Kmip/Knip where Kmip and Knip are the partition coefficient of analyte for sol-gel MIP and sol-gel NIP, respectively, which are determined by K=Cb/Cu where Cb is the amount of CAP bound by the sol-gel MIP or sol-gel NIP and Cu is the concentration of free chloramphenicol that remained in the solution.
Selectivity coefficient (SC) was calculated by the following equation: SC=IFCAP/IFother_analyte

[2] = Maximum adsorption capacity of the sol-gel molecularly imprinted sorbent (six sulfa drugs); format: binding; settings: 30 mg MIP, mixture of 6 sulfa drugs 10-1000 mg/L
Procedure: In order to calculate the sorption capacity at equilibrium a SPE cartridge packed with 30 mg of MIP particles was used. Experiments under optimum conditions were carried out sequentially on the same SPE cartridge. In each subsequent test, the initial concentration was increased in a range 10-1000 ng μL^-1 and the final concentration was determined by HPLC-DAD. The amount of adsorbed (mg/g) was calculated by using the formula reported by Vanderborght and Van […]:00002} Were Ci is the initial concentration (mg/L), Ce is the equilibrium concentration (mg/L), V is the volume (L) and m is the mass (g) of the adsorbent. […] The final Ce concentrations were calculated on HPLC. The maximum capacity (Q, mg/g) for each of the six compounds was determined with the above equation. The results are represented in FIG. 12.

[3] = Selectivity: imprinting factor of multi-template sol-gel MIP vs NIP; format: binding; settings: extraction from protein precipitated milk
Procedure: The selectivity of MIP particles for the six sulfonamides was tested. For these experiments were used SPE cartridges packed with 30 mg of MIP and NIP particles respectively. Standard solutions containing 5 ng μL^−1 were passed through the SPE cartridges by holding imprinted or non-imprinted particles at a flow rate of 1 mL/min by the aid of a vacuum system. Several antibiotics have similar structure to the sulfonamides as well as antibiotics with different structure and functional groups were studied (chloramphenicol, thiamphenicol, florphenicol, flumequine, sulfisoxazole, sulfamethoxazole, sulfadimethoxine). The extraction on each antibiotic based on the optimum conditions and the extracted antibiotics were determined by the HPLC system. Imprinting factor (IF) of MIP particles was determined by the following equation: […] Capacity Studies […] So, SPE was prepared for MIP and NIP. Imprinting factor (IF), which is an indicators, express the adsorption affinity of recognition sites to the imprinted sulfonamides. Table 12 summarizes the IF values for the examined sulfonamides when extraction was carried out from protein precipitated milk.

[4] = cited from earlier work
[5] = Stability of CAP standard solutions; format: physicochemical
[6] = Retention (sorption) capacity of the CAP-imprinted sol-gel sorbent; format: binding; settings: 30 mg polymer saturated with 100 mg/L CAP solution
Procedure: To determine the retention capacity (or sorption capacity) of the sol-gel derived CAP-imprinted polymer (maximum amount of the template retained by 1 g of MIP), 30 mg of polymer were saturated with CAP by passing several 5.0 mL aliquots of 100 mg/L CAP solution.

[7] = Honey, Magnetic SPE, LC-MS/MS (ref a)

## CS(=O)(=O)c1ccc([C@@H](O)[C@@H](CO)NC(=O)C(Cl)Cl)cc1 [THF, thiamphenicol]
[1]
  Selectivity Coefficient (SC): 2.6
  Imprinting Factor (IF): 1.9

## Nc1ccc(S(=O)(=O)Nc2ncccn2)cc1 [Sulfadiazine]
[2]
  Adsorption Capacity, Q: 4.2 mg/g
[3]
  Imprinting Factor (IF): 1.70

## Nc1ccc(S(N)(=O)=O)cc1 [Sulfanilamide]
[3]
  Imprinting Factor (IF): 1.56

## Nc1ccc(S(=O)(=O)Nc2nccs2)cc1 [Sulfathiazole]
[2]
  Adsorption Capacity, Q: 9.8 mg/g
[3]
  Imprinting Factor (IF): 3.90

## Sulfamethizole
[3]
  Imprinting Factor (IF): 4.52

## CC(=O)NS(=O)(=O)c1ccc(N)cc1 [Sulfacetamide]
[2]
  Adsorption Capacity, Q: 5.1 mg/g
[3]
  Imprinting Factor (IF): 2.70

## Chloramphenicol [CAP]
[4]; Honey, MISPE, HPLC-UV (ref f)
  Imprinting Factor: 2.2
[4]; [7]
  Adsorption Capacity: 5.53 mg/g
  Imprinting Factor: 1.375
[4]; Honey/Urine, MISPE, LC-MS/MS (ref d)
  Imprinting Factor: 2.43
[4]; Milk, MISPE, HPLC-UV (ref e)
  Adsorption Capacity: 2.22 mg/g
  Imprinting Factor: 1.38
[5]; 0.05-20 ng/μL in water, refrigerated
  Stability of working standard solutions: stable for the same period of time
[5]; 100 mg/L in water, kept at 4° C.
  Stability of stock solution: at least 3 months
[6]
  Retention capacity / adsorption capacity of CAP: 23 mg/g
[6]; listed as chloramphenicol
  Retention capacity / adsorption capacity of CAP: 23.0 mg/g
[1]; CAP, protein precipitated milk, MIP relative to NIP
  Imprinting factor (IF), maximum: 9.7
[1]
  Imprinting Factor (IF): 5

## Cc1ccnc(NS(=O)(=O)c2ccc(N)cc2)n1 [Sulfamerazine]
[2]
  Adsorption Capacity, Q: 3.7 mg/g
[3]
  Imprinting Factor (IF): 1.13

## florfenicol [FFC]
[1]
  Selectivity Coefficient (SC): 2.8
  Imprinting Factor (IF): 1.8
